Laboratory results taken from patent US9139557B2, “Carboxamide compounds and their use as calpain inhibitors” (Abbott GmbH & Co. KG, priority 2006, dated 2015).

How the values were obtained:
[1] = molecular target: T1, cathepsin S (Homo sapiens, UniProt P25774); assay: Cathepsin S enzyme inhibition in vitro (kinetic fluorescence assay); assay type: biochemical; conditions: Ki(cathepsin S)/Ki(calpain) ratio
T1 construct: purchased Calbiochem 219343; host or cells: E. coli
Procedure: (§1) Testing for blockade of the corresponding enzymic activities was carried out by means of kinetic fluorescence assays (excitation 390 nm, emission 460 nm).
(§2) Apparent Ki values were calculated from the experimentally determined IC50 values by the Cheng-Prussoff relation assuming a reversible competitive enzyme inhibition. The Km values of the substrates used under the assay conditions indicated above were: 90 μM (Z-Phe-Arg-AMC, cathepsin B), 10 μM (Z-Gly-Pro-Arg-AMC, cathepsin K), 2 μM (Z-Phe-Arg-AMC, cathepsin L), and 30 μM (Z-Val-Val-Arg-AMC, cathepsin S).
(§3) The indicated Ki values are averages of the inhibition constants calculated on the basis of 2 to 4 independent dose-effect plots.
(§4) • 1. Calpain I: • 20 nM calpain-I—isolated from human erythrocytes (Calbiochem #208713), 100 μM Suc-Leu-Tyr-AMC (Bachem #1-1355) as substrate in buffer with 62 mM imidazole, 0.3 mM CaCl2, 0.10% CHAPS, 0.05% BSA, 1 mM DTT at pH 7.3 and room temperature. • 2. Cathepsin B: • 0.25 nM cathepsin B—isolated from human liver (Calbiochem #219362), 100 μM Z-Phe-Arg-AMC (Bachem #1-1160) as substrate 50 mM MES, 2 mM EDTA, 0.05% Brij 35, 2.5 mM L-cysteine, pH 6.0, room temperature. • 3. Cathepsin K: • 3 nM cathepsin K—activated from recombinant human procathepsin K from E. coli (Calbiochem #342001), 10 μM Z-Gly-Pro-Arg-AMC (Biomol #P-142) as substrate in 50 mM MES, 2 mM EDTA, 0.05% Brij 35, 2.5 mM L-cysteine, pH 6.0, room temperature. • 4. Cathepsin L: • 1 nM cathepsin L—isolated from human liver (Calbiochem #219402), 2 μM Z-Phe-Arg-AMC (Bachem #1-1160) as substrate in 50 mM MES, 2 mM EDTA, 0.05% Brij 35, 2.5 mM L-cysteine, pH 6.0, room temperature. • 5. Cathepsin S: • 0.5 nM recombinant human cathepsin S from E. coli (Calbiochem #219343), 20 μM Z-Val-Val-Arg-AMC (Bachem #1-1540) as substrate in 50 mM MES, 2 mM EDTA, 0.05% Brij 35, 2.5 mM L-cysteine, pH 6.0, room temperature.

[2] = molecular target: T2, cathepsin L (Homo sapiens, UniProt P07711); assay: Cathepsin L enzyme inhibition in vitro (kinetic fluorescence assay); assay type: biochemical; conditions: Ki(cathepsin L)/Ki(calpain) ratio
T2 construct: cathepsin L—isolated from human liver; purchased Calbiochem 219402; host or cells: human liver (tissue isolate)
T2 sequence (P07711 114-333): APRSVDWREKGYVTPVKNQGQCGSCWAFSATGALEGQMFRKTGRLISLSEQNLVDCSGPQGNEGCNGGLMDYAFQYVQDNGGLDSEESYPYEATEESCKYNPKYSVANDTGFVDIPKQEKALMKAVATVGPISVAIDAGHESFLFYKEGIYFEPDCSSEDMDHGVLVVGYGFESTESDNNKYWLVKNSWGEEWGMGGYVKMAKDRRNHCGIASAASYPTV
Procedure: as §1, §2, §3, §4

T1 sequence (P25774 115-331): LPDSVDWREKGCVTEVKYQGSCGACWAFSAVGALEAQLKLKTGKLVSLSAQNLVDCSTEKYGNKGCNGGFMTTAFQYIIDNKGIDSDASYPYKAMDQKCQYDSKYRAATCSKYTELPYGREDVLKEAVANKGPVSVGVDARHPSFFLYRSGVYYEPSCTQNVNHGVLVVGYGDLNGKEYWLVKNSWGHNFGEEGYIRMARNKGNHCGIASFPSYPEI

Compound	Sel cat. S [1]	Sel cat. L [2]
NC(=O)C(=O)C(Cc1ccccc1)NC(=O)c1cccnc1-n1cc(CN2CCOCC2)c(-c2cccc(C(F)(F)F)c2)n1 (stereo not drawn) [Example 177, N-[3-Amino-2,3-dioxo-1-(phenylmethyl)propyl]-2-{4-(morpholin-4-ylmethyl)-3-[3-(trifluoromethyl)phenyl]-1H-pyrazol-1-yl}pyridine-3-carboxamide]	++ (++ means a Ki(cathepsin S)/Ki(calpain) ratio of ≧100)	–
NC(=O)C(=O)C(Cc1ccccc1)NC(=O)c1ccccc1-n1ccc(-c2ccccc2)n1 (stereo not drawn) [Example 106, N-[3-Amino-2,3-dioxo-1-(phenylmethyl)propyl]-2-(3-phenyl-1H-pyrazol-1-yl)benzamide]	++ (++ means a Ki(cathepsin S)/Ki(calpain) ratio of ≧100)	+ (+ means 30≦Ki(cathepsin L)/Ki(calpain)<50)
NC(=O)C(=O)C(Cc1cccs1)NC(=O)c1cccnc1-n1ccc(-c2ccc(F)cc2)n1 (stereo not drawn) [Example 57, N-[3-Amino-2,3-dioxo-1-(2-thienylmethyl)propyl]-2-[3-(4-fluorophenyl)-1H-pyrazol-1-yl]nicotinamide]	++ (++ means a Ki(cathepsin S)/Ki(calpain) ratio of ≧100)	++ (++ means a Ki(cathepsin L)/Ki(calpain) ratio of ≧50)
NC(=O)C(=O)C(Cc1ccccc1)NC(=O)c1cccnc1-n1cc(CN2CCCC2)c(-c2cccc(C(F)(F)F)c2)n1 (stereo not drawn) [Example 178, N-[3-Amino-2,3-dioxo-1-(phenylmethyl)propyl]-2-{4-(pyrrolidin-1-ylmethyl)-3-[3-(trifluoronnethyl)phenyl]-1H-pyrazol-1-yl}pyridine-3-carboxamide]	++ (++ means a Ki(cathepsin S)/Ki(calpain) ratio of ≧100)	–
Cl.NC(=O)C(=O)C(Cc1ccccc1)NC(=O)c1cccnc1-n1ccc(-c2cccc(CN3CCOCC3)c2)n1 (stereo not drawn) [Example 52, N-(3-Amino-1-benzyl-2,3-dioxopropyl)-2-{3-[3-(morpholin-4-ylmethyl)phenyl]-1H-pyrazol-1-yl}nicotinamide hydrochloride]	++ (++ means a Ki(cathepsin S)/Ki(calpain) ratio of ≧100)	–
CCCCC(NC(=O)c1cccnc1-n1cnc(-c2ccccc2)c1)C(=O)C(N)=O (stereo not drawn) [Example 2, N-{1-[Amino(oxo)acetyl]pentyl}-2-(4-phenyl-1H-imidazol-1-yl)nicotinamide]	–	++ (++ means a Ki(cathepsin L)/Ki(calpain) ratio of ≧50)
CCCCC(NC(=O)c1cccnc1-n1ccc(-c2ccc(CN(CC)CC)cc2)n1)C(=O)C(N)=O (stereo not drawn) [Example 44, N-{1-[Amino(oxo)acetyl]pentyl}-2-(3-{4-[(diethylamino)methyl]phenyl}-1H-pyrazol-1-yl)nicotinamide]	+ (+ means 50≦Ki(cathepsin S)/Ki(calpain)<100)	–
NC(=O)C(=O)C(Cc1ccccc1)NC(=O)c1cccnc1-n1ccc(-c2ccc(CN3CCOCC3)cc2)n1 (stereo not drawn) [Example 46, N-(3-Amino-1-benzyl-2,3-dioxopropyl)-2-{3-[4-(morpholin-4-ylmethyl)phenyl]-1H-pyrazol-1-yl}nicotinamide]	++ (++ means a Ki(cathepsin S)/Ki(calpain) ratio of ≧100)	–
CCCCC(NC(=O)c1cccnc1-n1ccc(-c2ccc(CN3CCOCC3)cc2)n1)C(=O)C(N)=O (stereo not drawn) [Example 45, N-{1-[Amino(oxo)acetyl]pentyl}-2-{3-[4-(morpholin-4-ylmethyl)phenyl]-1H-pyrazol-1-yl}nicotinamide]	+ (+ means 50≦Ki(cathepsin S)/Ki(calpain)<100)	–
NC(=O)C(=O)C(Cc1ccccc1)NC(=O)c1cccnc1-n1cc(CCN2CCOCC2)c(-c2ccc(F)cc2)n1 (stereo not drawn) [Example 165, N-[3-Amino-2,3-dioxo-1-(phenylmethyl)propyl]-2-[3-(4-fluorophenyl)-4-(2-morpholin-4-ylethyl)-1H-pyrazol-1-yl]pyridine-3-carboxamide]	++ (++ means a Ki(cathepsin S)/Ki(calpain) ratio of ≧100)	–
CCCCC(NC(=O)c1cc(Cl)cnc1-n1cnc(-c2ccccc2)c1)C(=O)C(N)=O.Cl (stereo not drawn) [Example 24, N-{1-[Amino(oxo)acetyl]pentyl}-5-chloro-2-(4-phenyl-1H-imidazol-1-yl)nicotinamide hydrochloride]	–	+ (+ means 30≦Ki(cathepsin L)/Ki(calpain)<50)
COCc1cn(-c2ncccc2C(=O)NC(Cc2ccccc2)C(=O)C(N)=O)nc1-c1ccc(F)cc1 (stereo not drawn) [Example 170, N-[3-Amino-2,3-dioxo-1-(phenylmethyl)propyl]-2-{3-(4-fluorophenyl)-4-[(methyloxy)methyl]-1H-pyrazol-1-yl}pyridine-3-carboxamide]	–	+ (+ means 30≦Ki(cathepsin L)/Ki(calpain)<50)
NC(=O)C(=O)C(Cc1ccccc1)NC(=O)c1cccnc1-n1cc(-c2ccccc2F)cn1 (stereo not drawn) [Example 104, N-[3-Amino-2,3-dioxo-1-(phenylmethyl)propyl]-2-[4-(2-fluorophenyl)-1H-pyrazol-1-yl]pyridine-3-carboxamide]	+ (+ means 50≦Ki(cathepsin S)/Ki(calpain)<100)	–
NC(=O)C(=O)C(Cc1ccccc1)NC(=O)c1cccnc1-n1ccc(-c2ccc(-n3ccnc3)cc2)n1 (stereo not drawn) [Example 101, N-[3-Amino-2,3-dioxo-1-(phenylmethyl)propyl]-2-{3-[4-(1H-imidazol-1-yl)phenyl]-1H-pyrazol-1-yl}pyridine-3-carboxamide]	++ (++ means a Ki(cathepsin S)/Ki(calpain) ratio of ≧100)	–
CN(C)Cc1cn(-c2ncccc2C(=O)NC(Cc2ccccc2)C(=O)C(N)=O)nc1-c1cccc(C(F)(F)F)c1 (stereo not drawn) [Example 176, N-[3-Amino-2,3-dioxo-1-(phenylmethyl)propyl]-2-{4-[(dimethylamino)methyl]-3-[3-(trifluoromethyl)phenyl]-1H-pyrazol-1-yl}pyridine-3-carboxamide]	++ (++ means a Ki(cathepsin S)/Ki(calpain) ratio of ≧100)	–
NC(=O)C(=O)C(Cc1ccccc1)NC(=O)c1cccnc1-n1ccc(-c2ccncc2)n1 (stereo not drawn) [Example 65, N-(3-Amino-1-benzyl-2,3-dioxopropyl)-2-(3-pyridin-4-yl-1H-pyrazol-1-yl)nicotinamide]	++ (++ means a Ki(cathepsin S)/Ki(calpain) ratio of ≧100)	–
CCCCC(NC(=O)c1cccnc1-n1ccc(-c2ccc(N(CC)CC)cc2)n1)C(=O)C(N)=O (stereo not drawn) [Example 47, N-{1-[Amino(oxo)acetyl]pentyl}-2-{3-[4-(diethylamino)phenyl]-1H-pyrazol-1-yl}nicotinamide]	++ (++ means a Ki(cathepsin S)/Ki(calpain) ratio of ≧100)	–
CCN(CC)Cc1ccc(-c2ccn(-c3ncccc3C(=O)NC(Cc3ccccc3)C(=O)C(N)=O)n2)cc1.Cl (stereo not drawn) [Example 43, N-(3-Amino-1-benzyl-2,3-dioxopropyl)-2-(3-{4-[(diethylamino)methyl]phenyl}-1H-pyrazol-1-yl)nicotinamide hydrochloride]	++ (++ means a Ki(cathepsin S)/Ki(calpain) ratio of ≧100)	–
NC(=O)C(=O)C(Cc1ccccc1)NC(=O)c1cccnc1-n1cnc(-c2ccc(N3CCOCC3)cc2)c1 (stereo not drawn) [Example 14, N-(3-Amino-1-benzyl-2,3-dioxopropyl)-2-[4-(4-morpholin-4-ylphenyl)-1H-imidazol-1-yl]nicotinamide]	++ (++ means a Ki(cathepsin S)/Ki(calpain) ratio of ≧100)	–
CCN(CC)c1ccc(-c2ccn(-c3ncccc3C(=O)NC(Cc3ccccc3)C(=O)C(N)=O)n2)cc1 (stereo not drawn) [Example 42, N-(3-Amino-1-benzyl-2,3-dioxopropyl)-2-{3-[4-(diethylamino)phenyl]-1H-pyrazol-1-yl}nicotinamide]	++ (++ means a Ki(cathepsin S)/Ki(calpain) ratio of ≧100)	–
CCCCC(NC(=O)c1cccnc1-n1ccc(-c2ccccc2)n1)C(=O)C(N)=O (stereo not drawn) [Example 6, N-{1-[Amino(oxo)acetyl]pentyl}-2-(3-phenyl-1H-pyrazol-1-yl)nicotinamide]	+ (+ means 50≦Ki(cathepsin S)/Ki(calpain)<100)	–
Cc1cn(-c2ncccc2C(=O)NC(Cc2ccccc2)C(=O)C(N)=O)nc1-c1ccccc1 (stereo not drawn) [Example 86, N-[3-Amino-2,3-dioxo-1-(phenylmethyl)propyl]-2-(4-methyl-3-phenyl-1H-pyrazol-1-yl)pyridine-3-carboxamide]	–	++ (++ means a Ki(cathepsin L)/Ki(calpain) ratio of ≧50)
